Data reported in patent US10208046B2, “Nitrogen-containing heterocyclic compound” (Takeda Pharmaceutical Company Limited, priority 2014, dated 2019).

Columns and labels:
[1] = tested on: IP1 production in hippocampi; assay: Measurement of myo-inositol 1 phosphate (IP1) in rat hippocampi after oral administration; format: in vivo, male Long-Evans rats; settings: rat hippocampus IP1/protein ratio, Vehicle group as 100%
Protocol: Measurement of Myo-Inositol 1 Phosphate (IP1)
Animals used were male Long-Evans rats. They were used after acclimation for at least 1 week. Test compounds were suspended in 0.5% (w/v) aqueous methylcellulose solution, and the suspension was orally administered to the rats. After a given time, lithium chloride was dissolved in saline and subcutaneously administered into the rats. After a given time, their bilateral hippocampi were isolated from the rats, and the wet weight thereof was measured. The isolated hippocampi were homogenized with HEPES buffer, followed by centrifugation. The IP1 and protein concentrations in the supernatant were measured by IP-One HTRF(R) assay kit (Cisbio Bioassays) and BCA protein assay kit (Thermo Scientific), respectively. The level of the IP1 production was expressed as the ratio of the concentration of IP1 to that of protein. The increase rate of the IP1 production was shown as a relative value when Vehicle administration group as 100%.

[2] = biological target: T1, human M1 receptor (hCHRM1) (Homo sapiens, UniProt P11229); assay: Measurement of M1 receptor positive allosteric modulator (M1PAM) activity, calcium fluorescence in CHO-K1 cells; format: cell-based; settings: for activity (%) at 10 μM: 10 μM test compound with acetylcholine at EC20, 100% = acetylcholine 1 μM, 0% = DMSO; for EC50: inflection point in the concentration-dependent curve, acetylcholine at EC20 (final 0.6-0.8 nM), CHO-K1 cells expressing human M1, Fluo-4, FLIPRtetra, read-out: IP value;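 on EC50: potency reported as IP value in nM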
T1 construct: expressed in transfected cells
T1 sequence (P11229 1-460): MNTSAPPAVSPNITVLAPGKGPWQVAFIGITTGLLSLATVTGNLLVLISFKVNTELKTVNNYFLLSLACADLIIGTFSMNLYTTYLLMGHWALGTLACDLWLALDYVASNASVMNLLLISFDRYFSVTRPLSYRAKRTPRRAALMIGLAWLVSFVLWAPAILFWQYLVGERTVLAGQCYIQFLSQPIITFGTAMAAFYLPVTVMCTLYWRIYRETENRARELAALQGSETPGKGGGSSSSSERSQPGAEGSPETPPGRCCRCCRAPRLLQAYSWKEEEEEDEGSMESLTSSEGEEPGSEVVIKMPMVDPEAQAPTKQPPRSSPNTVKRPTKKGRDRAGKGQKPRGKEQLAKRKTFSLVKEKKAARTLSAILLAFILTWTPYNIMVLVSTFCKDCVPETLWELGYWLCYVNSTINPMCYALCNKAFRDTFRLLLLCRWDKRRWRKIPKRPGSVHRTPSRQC
Method in brief: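 CHO-K1 cells stably expressing human M1, Fluo-4 loaded, treated with compound plus acetylcholine at EC20 (final 0.6-0.8 nM); calcium fluorescence read by FLIPR over 1 min. Activity scaled to 1 μM acetylcholine (100%) and DMSO (0%); IP = inflection point of concentration-response curve.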

[3] = tested on: Scopolamine-induced memory deficits models; assay: Novel object recognition test; format: in vivo, male Long-Evans rats; settings: scopolamine 0.1 mg/kg s.c., retention trial 4 hr later, mean±standard error
Protocol: Novel Object Recognition Test Novel object recognition test is comprised of two trials called the acquisition and the retention trials. Scopolamine-induced memory deficits models were used for the test, and animals used were male Long-Evans rats (7-week-old). On the day before the test, for acclimation, the rats were allowed to freely move about the test box (40×40×50 cm) for 10 minutes. On the test day, the rats were acclimated to the test room for about 1 hr prior to the test. The test compounds were orally administered to the rats in a single dose 2 hours before the acquisition trial. For induction of learning and memory deficits, scopolamine (0.1 mg/kg) was subcutaneously administered into the rats 30 min before the acquisition trial. For the acquisition trial, two identical objects (A1, A2) were placed in the test box. The rats were put in the test box for 3 min, and the duration exploring each object was measured. The retention trial was performed 4 hr after the acquisition trial. […] The duration for exploring each object in the acquisition trial and the retention trial was measured, and the exploration rate of novel object was calculated. The exploration rate of novel object was expressed as (the duration exploring the novel object)/[(the duration exploring the novel object)+(the duration exploring the familiar object)]×100(%) at mean±standard error.

SMILES	increase rate (% of Vehicle) ([1]; 30 mg/kg oral)	activity (%) at 10 μM [2] [%]	EC50 [2] [nM]	exploration rate of novel object (%) ([3]; 3 mg/kg oral single dose 2 hours before acquisition trial)	exploration rate of novel object (%) ([3]; 10 mg/kg oral single dose 2 hours before acquisition trial)	increase rate (% of Vehicle) ([1]; 3 mg/kg oral)
Cc1nn(C)cc1-c1ccc(CN2Cc3ccnc(OCC(F)F)c3C2=O)cc1 [Example 6, 4-(2,2-difluoroethoxy)-2-(4-(1,3-dimethyl-1H-pyrazol-4-yl)benzyl)-1,2-dihydro-3H-pyrrolo[3,4-c]pyridin-3-one]	38 % of Vehicle	109	70	58.75±2.01	52.48±2.28	–
Cc1nn(C)cc1-c1ccc(CN2Cc3ncnc(OCC(C)(F)F)c3C2=O)c(F)c1 [Example 23, 4-(2,2-difluoropropoxy)-6-(4-(1,3-dimethyl-1H-pyrazol-4-yl)-2-fluorobenzyl)-6,7-dihydro-5H-pyrrolo[3,4-d]pyrimidin-5-one]	–	94	6	–	–	27 % of Vehicle
